In patent publication US20150359886A1, “SYSTEM AND METHODS FOR NANOSTRUCTURE PROTECTED DELIVERY OF TREATMENT AGENT AND SELECTIVE RELEASE THEREOF” (priority 2012, published 2015):

What was measured:
L3.6 cells = format: cell-based; settings: for cell death (killing) of pancreatic cancer cells: FIG. 2, single agents even at high doses, combination at relatively low dose; for concentration required for a comparable effect with the exogenously applied treatment: exogenously applied Taxol + C6-ceramide combination, no CNT carrier
Protocol: Human pancreatic cancer lines PANC-1, MIA PaCa-2 (MIA) and L3.6 cells culture, cell viability assay (MTT dye assay) and Western blots assay were performed as described in Cao, C., et al. Galpha(i1) and Galpha(i3) are required for epidermal growth factor-mediated activation of the Akt-mTORC1 pathway. Science signaling 2, ra17 (2009).
(§1) Accordingly, experiments were carried out to examine the magnitude of chemosensitization of C6-ceramide on Taxol in different cancer cell lines. The pancreatic cancer cell lines L3.6. PANC-1 and MIA PaCa-2 (MIA) cells were selected for this experiment.
Using same pancreatic cancer cells (L3.6), the inductive heating release was we next tested the on-commandinductive-heating release of the encapsulated chemotherapeutic agents (Taxol and C6-ceramide) from CNTs. The drug-loaded CNTs were added to L3.6 cells for 12 hours, allowing them to be taken up by the cells. The cells were then washed with fresh basal medium (DMEM) 5 times to remove residual CNTs from the media, and a 30 min a.c. magnetic field (25 kHz) was applied to these cells to release the encapsulated drugs (Taxol and C6-ceramide) present in CNTs within the cells. After 48 h, the release of the drugs was inferred and assessed by the degree of cell death.

PANC-1 = assay: Cell viability assay (MTT dye assay), PANC-1 pancreatic cancer cells; format: cell-based, Human; settings: for cell death (killing) of pancreatic cancer cells: FIG. 2, single agents even at high doses, combination at relatively low dose
Protocol: (§2) Science signaling 2, ra17 (2009).
as §1, with “experiment. […] However, the side effects noted above remain a challenging problem in this combination regimen and calls for a new delivery method.” for “experiment.”

MIA PaCa-2 (MIA) = assay: Cell viability assay (MTT dye assay), MIA PaCa-2 pancreatic cancer cells; format: cell-based, Human; settings: for cell death (killing) of pancreatic cancer cells: FIG. 2, single agents even at high doses, combination at relatively low dose
Protocol: as §2
as §1, with “experiment. […] However, the side effects noted above remain a challenging problem in this combination regimen and calls for a new delivery method.” for “experiment.”

[1] = sensitization of Taxol-induced cell death

SMILES | cell death (killing) of pancreatic cancer cells (L3.6 cells; L3.6) | concentration needed to reach the chemosensitization effect (L3.6 cells; L3.6, sensitization of Taxol-induced cell death) | concentration required for a comparable effect with the exogenously applied treatment (L3.6 cells) | cell death (killing) of pancreatic cancer cells (PANC-1) | concentration needed to reach the chemosensitization effect (PANC-1; [1]) | cell death (killing) of pancreatic cancer cells (MIA PaCa-2 (MIA)) | concentration needed to reach the chemosensitization effect (MIA PaCa-2 (MIA); [1])
CCCCCCCCCCCCC/C=C/[C@@H](O)[C@H](CO)NC(=O)CCCCC [C6-ceramide] | limited killing | 5-10 micrograms per milliliter | 10 µg/mL | limited killing | 5-10 micrograms per milliliter | limited killing | 5-10 micrograms per milliliter
CC(=O)O[C@H]1C(=O)[C@@]2(C)[C@H]([C@H](OC(=O)c3ccccc3)[C@]3(O)C[C@H](OC(=O)[C@H](O)[C@@H](NC(=O)c4ccccc4)c4ccccc4)C(C)=C1C3(C)C)[C@]1(OC(C)=O)CO[C@@H]1C[C@@H]2O [Taxol, Paclitaxel] | limited killing |  | 3 µg/mL | limited killing |  | limited killing | 
